Measurements taken from patent US20110118350A1, “COMPOSITION FOR PREVENTING CARDIOVASCULAR EVENT IN HIGH-RISK PATIENT” (MOCHIDA PHARMACEUTICAL CO., LTD., priority 2008, published 2011).

Experiment: Incidence of cardiovascular events for 5 years from the start of administration (DELIS partial analysis)
Format: in vivo, human
Conditions: for Ratio of incidence reduction (%): EPA-E vs control group; for Incidence (%) of cardiovascular events / Number of cardiovascular events: 5 years
Text: This trial corresponds to a partial analysis of the results obtained in DELIS (Japan EPA Lipid Intervention Study) which is a large scale clinical trial of high purity EPA preparation which was presented in the American College of Cardiology 2005 Annual Meeting (for general information on DELIS, see Lancet, vol. 369, pp. 1090-1098 (2007)). More specifically, of 18,645 subject patients of the DELIS trial (EPA group (9,326 cases) and control group (9,319 cases)), 15534 cases (sum of the control group and EPA group) were analyzed for the composition of plasma fatty acids and divided based on the average of the plasma OA/SA ratio during the whole observation period into three groups (i.e., a group having an OA/SA ratio of less than 2.6, a group having an OA/SA ratio of at least 2.6 but less than 3.0, and a group having an OA/SA ratio of at least 3.0) so that the three groups were approximately equal in number, and the groups were compared for the incidence of cardiovascular events for 5 years from the start of administration. The EPA group was orally administered with Epadel (EPA-E available from Mochida Pharmaceutical Co., Ltd.) typically at an adult dose of 600 mg per administration and 3 times a day immediately after the meal. However, in the case of abnormal serum TG, the dose could be increased to 900 mg per administration and 3 times a day depending on the degree of abnormality. In both groups, pravastatin sodium (Mevalotin™ tablets and fine granules, Daiichi Sankyo Co., Ltd.), simvastatin (Lipovas™ tablets, Banyu Pharmaceutical Co., Ltd.), or atorvastatin calcium hydrate (Lipitor™ tablets, Astellas Pharma Inc. and Pfizer Inc.) was used for the base drug, and these drugs were orally administered according to the prescribed dosage regimen. This trial corresponds to a partial analysis of the results obtained in DELIS as in Example 1. More specifically, primary prevention cases combined with secondary prevention cases, only primary prevention cases, and only secondary prevention cases were respectively divided into four groups based on the plasma OA level or the plasma SA level at the start of administration so that the four groups were approximately equal in number. The groups were compared for the incidence of cardiovascular events for 5 years from the start of administration.

[1] = primary + secondary prevention cases, Total (oleic acid grouping)
[2] = primary + secondary prevention cases, Total (stearic acid grouping)
[3] = primary + secondary prevention cases, oleic acid at start 22.1< mol %
[4] = primary + secondary prevention cases, oleic acid at start >18.2-20.1 mol %
[5] = primary + secondary prevention cases, oleic acid at start >20.1-22.1 mol %
[6] = primary + secondary prevention cases, oleic acid at start −18.2 mol %
[7] = primary + secondary prevention cases, stearic acid at start 7.35< mol %
[8] = primary + secondary prevention cases, stearic acid at start >6.46-6.89 mol %
[9] = primary + secondary prevention cases, stearic acid at start >6.89-7.35 mol %
[10] = primary + secondary prevention cases, stearic acid at start −6.46 mol %
[11] = primary prevention cases, Total (oleic acid grouping)
[12] = primary prevention cases, Total (stearic acid grouping)
[13] = primary prevention cases, oleic acid at start 21.9< mol %
[14] = primary prevention cases, oleic acid at start >18.1-19.9 mol %
[15] = primary prevention cases, oleic acid at start >19.9-21.9 mol %
[16] = primary prevention cases, oleic acid at start −18.1 mol %
[17] = primary prevention cases, stearic acid at start 7.33< mol %
[18] = primary prevention cases, stearic acid at start >6.46-6.89 mol %
[19] = primary prevention cases, stearic acid at start >6.89-7.33 mol %
[20] = primary prevention cases, stearic acid at start −6.46 mol %
[21] = secondary prevention cases, Total (oleic acid grouping)
[22] = secondary prevention cases, Total (stearic acid grouping)
[23] = secondary prevention cases, oleic acid at start 22.1< mol %
[24] = secondary prevention cases, oleic acid at start >18.2-20.1 mol %
[25] = secondary prevention cases, oleic acid at start >20.1-22.1 mol %
[26] = secondary prevention cases, oleic acid at start −18.2 mol %
[27] = secondary prevention cases, stearic acid at start 7.38< mol %
[28] = secondary prevention cases, stearic acid at start >6.46-6.90 mol %
[29] = secondary prevention cases, stearic acid at start >6.90-7.38 mol %
[30] = secondary prevention cases, stearic acid at start −6.46 mol %

CC/C=C\C/C=C\C/C=C\C/C=C\C/C=C\CCCC(=O)OCC [EPA-E, ethyl icosapentate]
Ratio of incidence reduction (%) [1]: 13.2%
Ratio of incidence reduction (%) [2]: 13.2%
Ratio of incidence reduction (%) [3]: 30.3%
Ratio of incidence reduction (%) [4]: 14.6%
Ratio of incidence reduction (%) [5]: −2.0%
Ratio of incidence reduction (%) [6]: −5.3%
Ratio of incidence reduction (%) [7]: 39.5%
Ratio of incidence reduction (%) [8]: −13.9%
Ratio of incidence reduction (%) [9]: 26.6%
Ratio of incidence reduction (%) [10]: 1.8%
Ratio of incidence reduction (%) [11]: 11.1%
Ratio of incidence reduction (%) [12]: 11.1%
Ratio of incidence reduction (%) [13]: 30.4%
Ratio of incidence reduction (%) [14]: 26.1%
Ratio of incidence reduction (%) [15]: −20.6%
Ratio of incidence reduction (%) [16]: −12.2%
Ratio of incidence reduction (%) [17]: 17.0%
Ratio of incidence reduction (%) [18]: −17.3%
Ratio of incidence reduction (%) [19]: 19.5%
Ratio of incidence reduction (%) [20]: 22.0%
Ratio of incidence reduction (%) [21]: 15.5%
Ratio of incidence reduction (%) [22]: 15.5%
Ratio of incidence reduction (%) [23]: 40.8%
Ratio of incidence reduction (%) [24]: −3.4%
Ratio of incidence reduction (%) [25]: 8.1%
Ratio of incidence reduction (%) [26]: 3.0%
Ratio of incidence reduction (%) [27]: 65.2%
Ratio of incidence reduction (%) [28]: −19.9%
Ratio of incidence reduction (%) [29]: 38.7%
Ratio of incidence reduction (%) [30]: −26.0%
effect on incidence and/or rate of recurrence of cardiovascular events (patients with an OA level exceeding 22.1 mol % or an SA level exceeding 7.38 mol %): reduced incidence and/or rate of recurrence of cardiovascular events
Incidence (%) of cardiovascular events [1]: 3.8%
Number of cardiovascular events [1]: 266
Incidence (%) of cardiovascular events [2]: 3.8%
Number of cardiovascular events [2]: 266
Incidence (%) of cardiovascular events [3]: 4.7%
Number of cardiovascular events [3]: 77
Incidence (%) of cardiovascular events [4]: 3.1%
Number of cardiovascular events [4]: 55
Incidence (%) of cardiovascular events [5]: 4.4%
Number of cardiovascular events [5]: 76
Incidence (%) of cardiovascular events [6]: 3.3%
Number of cardiovascular events [6]: 58
Incidence (%) of cardiovascular events [7]: 2.5%
Number of cardiovascular events [7]: 44
Incidence (%) of cardiovascular events [8]: 4.9%
Number of cardiovascular events [8]: 81
Incidence (%) of cardiovascular events [9]: 3.2%
Number of cardiovascular events [9]: 56
Incidence (%) of cardiovascular events [10]: 4.8%
Number of cardiovascular events [10]: 85
Incidence (%) of cardiovascular events [11]: 2.5%
Number of cardiovascular events [11]: 140
Incidence (%) of cardiovascular events [12]: 2.5%
Number of cardiovascular events [12]: 140
Incidence (%) of cardiovascular events [13]: 2.8%
Number of cardiovascular events [13]: 40
Incidence (%) of cardiovascular events [14]: 1.9%
Number of cardiovascular events [14]: 27
Incidence (%) of cardiovascular events [15]: 3.2%
Number of cardiovascular events [15]: 46
Incidence (%) of cardiovascular events [16]: 1.8%
Number of cardiovascular events [16]: 27
Incidence (%) of cardiovascular events [17]: 1.9%
Number of cardiovascular events [17]: 27
Incidence (%) of cardiovascular events [18]: 3.1%
Number of cardiovascular events [18]: 43
Incidence (%) of cardiovascular events [19]: 2.4%
Number of cardiovascular events [19]: 34
Incidence (%) of cardiovascular events [20]: 2.4%
Number of cardiovascular events [20]: 36
Incidence (%) of cardiovascular events [21]: 10.2%
Number of cardiovascular events [21]: 126
Incidence (%) of cardiovascular events [22]: 10.2%
Number of cardiovascular events [22]: 126
Incidence (%) of cardiovascular events [23]: 9.5%
Number of cardiovascular events [23]: 27
Incidence (%) of cardiovascular events [24]: 8.7%
Number of cardiovascular events [24]: 28
Incidence (%) of cardiovascular events [25]: 11.5%
Number of cardiovascular events [25]: 37
Incidence (%) of cardiovascular events [26]: 11.2%
Number of cardiovascular events [26]: 34
Incidence (%) of cardiovascular events [27]: 4.3%
Number of cardiovascular events [27]: 14
Incidence (%) of cardiovascular events [28]: 14.2%
Number of cardiovascular events [28]: 41
Incidence (%) of cardiovascular events [29]: 6.9%
Number of cardiovascular events [29]: 22
Incidence (%) of cardiovascular events [30]: 16.4%
Number of cardiovascular events [30]: 49
